Test results from patent US9982256B2, “Random RNAi libraries, methods of generating same, and screening methods utilizing same” (The Trustees of the University of Pennsylvania, priority 2006, dated 2018).

Assays:
[1] = test system: caspase 3; experiment: Caspase 3 enzymatic activity in book-infected FL5.12 cells; assay type: cell-based, murine; details: correlated with the improved survival after IL-3 withdrawal
Protocol: (§1) 10 shRNA-encoding sequences (“books”) were retrieved by PCR, cloned back into pSiren, and sequenced. Of the 10, two were the same (books 1 and 7), indicating selective enrichment. FL5.12 cells were infected with 3 of the putative shRNA molecules separately (books 1, 3, and 8), each one assayed in 6 independent infections. The cells were subjected to 1 round of IL-3 withdrawal and recovery and subjected to a second withdrawal from IL-3. After 15 hours, cells were analyzed by flow cytometry, identifying infected cells by GFP fluorescence and dead cells by propidium iodide (PI) staining. Fractions of GFP-positive (infected), PI-negative (live) cells relative to the start of the experiment (just prior to the first IL-3 withdrawal) are depicted in FIG. 16. […] The improved survival with books 1 and 3 correlated with a decrease in caspase 3 enzymatic activity. Because the cycling of IL-3 withdrawal included a recovery segment, books 1 and 3 were tested for effects on growth rate and none were seen. The stem sequences of books 1 and 3 are as follows: […]

[2] = test system: FL5.12 cells; experiment: Survival of shRNA-infected FL5.12 cells after IL-3 withdrawal (flow cytometry, GFP/PI); assay type: cell-based, murine; details: 15 hours into second IL-3 withdrawal, after 1 round of withdrawal and recovery; 6 independent infections; p<0.0001, Student's t-test
Protocol: High-titer retrovirus was generated by co-transfecting 293T cells with retroviral vector and pCL-Eco, which encodes both ecotropic envelope and gag-pol proteins, using an Effectene® transfection kit (Qiagen). Culture supernatant was harvested each day from 24-72 hours after transfection and used either to infect FL5.12 cells or frozen at ^−80° C. for future use. 1-2 million cells were seeded in each well of a 24-well plate and were centrifuged at 2500×g for 1 hour with viral supernatant, 5 μg/ml polybrene, and 0.3 ng/ml interleukin-3 (IL-3). Cells were stored in the incubator for 2 hours. Viral supernatant was replaced with fresh batches, and the spin/incubation process was repeated 2 more times. Infection efficiency was determined 24-48 hours later by flow cytometric analysis of GFP expression.
The murine pro-B cell line FL5.12 is IL-3 dependent; 100% of the cells die by apoptosis after IL-3 withdrawal for 3 days, and >90% of cells can be rescued by expression of Bcl-xL59. […]
10 shRNA-encoding sequences (“books”) were retrieved by PCR, cloned back into pSiren, and sequenced. […] After 15 hours, cells were analyzed by flow cytometry, identifying infected cells by GFP fluorescence and dead cells by propidium iodide (PI) staining. […]

[3] = test system: FL5.12 cells; experiment: Growth rate of book-infected FL5.12 cells; assay type: cell-based, murine
Protocol: as §1

[4] = test system: primary FRDA fibroblasts; details: 0.05 mM BSO; Jauslin et al. 2002; cited from earlier work
[5] = test system: normal control fibroblasts; experiment: Glutathione depletion with BSO: viability of normal control fibroblasts; assay type: cell-based; details: 1 mM BSO in media with 0.3 mg/ml fully saturated human transferrin; 48 hours
Protocol: (§2) Primary FRDA fibroblasts are far more sensitive to oxidative stress than normal control fibroblasts. (Jauslin et al. (Hum Molec Gen 11: 3055, 2002) used L-buthionine (S,R)-sulfoximine (BSO) to block the rate-limiting enzyme in glutathione synthesis, and found a concentration (0.05 mM) at which virtually all primary FRDA fibroblasts lose viability, but more than 90% of normal control fibroblasts retain viability.)
(§3) […] […] By washing the cells, adding back their normal medium, and looking for colony formation, the minimum conditions under which 100% of the cells die were confirmed.

[6] = test system: normal control fibroblasts; details: 0.05 mM BSO; Jauslin et al. 2002; cited from earlier work
[7] = test system: primary FRDA fibroblasts; experiment: Glutathione depletion with BSO: viability of primary FRDA fibroblasts; assay type: cell-based; details: 1 mM BSO in media with 0.3 mg/ml fully saturated human transferrin; 48 hours; 6-well plate
Protocol: as §2, §3

[8] = test system: 293T cells; experiment: Overnight CDDO treatment of 293T cells, to establish an apoptosis assay; assay type: cell-based, human; details: for adherent cells remaining after treatment: then medium without CDDO
Protocol: 293T cells (a human, embryonic kidney cell line) were treated overnight (16 hours) with 2, 4, 6, and 8 μM of the synthetic triterpenoid, CDDO.

5′-GGGTAGCTACATTTGCATATGTGGATATG-3′ (listed as DNA, chemistry not given here) [Book 1, books 1 and 7 were the same]
caspase 3 enzymatic activity [1]: decrease
survival (GFP-positive, PI-negative cells) relative to random book (ctr153) or vector alone (pSiren) [2]: statistically significant improvement in survival
effects on growth rate [3]: none

5′-GTGGATCAGTGTGTTATAGCTCGGGCAGG-3′ (listed as DNA, chemistry not given here) [Book 3]
caspase 3 enzymatic activity [1]: decrease
survival (GFP-positive, PI-negative cells) relative to random book (ctr153) or vector alone (pSiren) [2]: statistically significant improvement in survival
effects on growth rate [3]: none

CCCCS(=N)(=O)CCC(N)C(=O)O [BSO, L-buthionine (S,R)-sulfoximine]
primary FRDA fibroblasts losing viability [4]: virtually all
age- and passage-matched controls remaining viable [5]: majority
normal control fibroblasts retaining viability [6]: more than 90%
viability of FRDA cells [7]: all the cells in a 6-well plate nonviable

CC1(C)CC[C@]2(C(=O)O)CC[C@]3(C)[C@H](C(=O)C=C4[C@@]5(C)C=C(C#N)C(=O)C(C)(C)[C@@H]5CC[C@]43C)[C@@H]2C1 [CDDO]
adherent cells remaining after treatment ([8]; 2 μM CDDO overnight (16 hours)): some adherent cells
adherent cells remaining after treatment ([8]; 4 μM CDDO overnight (16 hours)): no remaining adherent cells
adherent cells remaining after treatment ([8]; 6 μM CDDO overnight (16 hours)): no remaining adherent cells
adherent cells remaining after treatment ([8]; 8 μM CDDO overnight (16 hours)): no remaining adherent cells
adherent colonies after post-treatment culture ([8]; repeat with 4 μM CDDO, five days of post-treatment culture in medium without CDDO): no adherent colonies were evident
